Results on 81 molecules are retold here after the METLIN SMRT retention time set (Domingo-Almenara et al. 2019).

The data set in a line: gradient 5% acetonitrile 3 min, to 50% in 2 min, to 85% in 15 min, held 3 min, 100 µL/min. The settings on record: column: Zorbax Extend-C18 2.1 x 50 mm; eluents: water / acetonitrile, 0.1% formic acid. A digest of the protocol: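 In both positive and negative ionization mode, a quadrupole time-of-flight mass spectrometer coupled to HPLC analyzed pure standards run in mixtures of ~100 molecules. The Zorbax Extend-C18 column (2.1 × 50 mm, 1.8 μm) was operated at 100 μL/min with water and acetonitrile, each containing 0.1% formic acid. The dead volume was 40 μL and the dwell volume 900 μL. Retention time came from adduct peaks that were computationally picked and individually inspected by hand.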
The molecule `COc1nccnc1NC1CCN(C(=O)c2cccn2C)CC1` displayed an RP-LC retention time of 570 s. The value for `COc1ccc(C(=O)N2CCC(C(=O)NCCc3csc(-c4cccs4)n3)CC2)cc1OC` was 725 s. The value for `Cc1ccc(-c2ccc(N3CCCC(C(=O)NCC4CCCO4)C3)nn2)cc1C` (stereo unspecified) was 663 s. The molecule `CCOC(=O)Cn1cc(S(=O)(=O)N2CCCCC2)ccc1=O` displayed an RP-LC retention time of 762 s. For the molecule `Cc1cc(N2CCC(C)CC2)n2ncnc2n1`, the RP-LC retention time came to 790 s. In turn, `Cc1cc2n(n1)CCC(=O)N2CCCC(=O)NCCc1cccs1` returned an RP-LC retention time of 648 s.

On to `CC(C)c1ccc(S(=O)(=O)N2CCCC2c2nc(-c3cccc(F)c3)no2)cc1` (stereo unspecified), for which the RP-LC retention time was 1270 s. In turn, `O=C(Cn1c(=O)c(CCC(=O)NC2CCCC2)nc2ccccc21)Nc1ccc(Cl)cc1F` gave an RP-LC retention time of 885 s. For the molecule `CCCS(=O)(=O)N1CC(n2cc(C(=O)N(C)C)nn2)C1`, the RP-LC retention time was 626 s. In turn, `CCc1nc(-c2csc(S(=O)(=O)N3CCC(C(=O)Nc4ccc(C(C)C)cc4)CC3)c2)no1` showed an RP-LC retention time of 1140 s. On to `OCCNCCNCc1ccc(-c2cccc(Cl)c2)o1`, for which the RP-LC retention time was 568 s. Molecule `CCn1ccc2c(cc(C(=O)Nc3ccccc3Br)n2C)c1=O` returned an RP-LC retention time of 758 s. Regarding `Cn1cnc(S(=O)(=O)N2CC(n3cc(C(=O)NCC4CC4)nn3)C2)c1`, the RP-LC retention time is 622 s. For the molecule `Cc1nc2c(ccc3nc(NC(=O)c4cc(=O)c5ccccc5o4)sc32)s1`, the RP-LC retention time turned out to be 828 s. As to `COc1ccc(-c2nc(-c3ccc4c(c3)nnn4CCN(C)C)no2)c(C)c1`, the RP-LC retention time is 700 s. Consider `O=C(Nc1ccccc1Cl)c1cn(CC2CCCO2)cc2c(=O)n(-c3ccccc3)nc1-2` (stereo unspecified), for which the RP-LC retention time was 1050 s. In the case of `Cc1ccc(-c2nc(-c3ccc4c(c3)nc(C)c(=O)n4C)no2)c(C)c1`, the RP-LC retention time stood at 1220 s. The molecule `COC(=O)c1ccc(Cl)cc1NC(=O)NCCc1cn(C)c2ncccc12` had an RP-LC retention time of 845 s. Molecule `COC(=O)C1=C(C)NC2=C(C(=O)c3ccccc32)C1c1cccs1` (stereo unspecified) came in with an RP-LC retention time of 918 s. The value for `Cc1[nH]c(C(=O)N2CCC(CC(=O)NC(C)C)CC2)c(C)c1C(=O)OC(C)C` was 713 s; that for `COc1ccc(OC)c(NC(=O)C2CCCN(c3nnc4ccccn34)C2)c1` (stereo unspecified) was 667 s.

In turn, `CC(C)c1nncn1C1CCN(S(=O)(=O)c2ccccc2F)CC1` returned an RP-LC retention time of 692 s. `CC(=O)N[C@@H]1CN(C(=O)c2ccc3c(c2)OCO3)C[C@H]1CO` had an RP-LC retention time of 571 s.

`Cc1ccc(NC(=O)c2c(C)sc3ncnc(N4CCCC(C)C4)c23)cc1` (stereo unspecified) yielded an RP-LC retention time of 1220 s. The value for `Cc1oc(-c2ccc(NC(=O)CC3CCCCC3)cc2)nc1Cn1cccn1` was 966 s; that for `CCOc1ccccc1NC(=O)Cn1c(=O)c(CCC(=O)NCC(C)C)nc2ccccc21` was 762 s.

In turn, `O=C(NCCOc1ccc(-c2ccccn2)nn1)c1ccco1` yielded an RP-LC retention time of 555 s.

`CCc1ccc(CCN2C(=O)c3ccccc3C2=O)nc1` yielded an RP-LC retention time of 667 s.

On to `CCCCOCc1cc(CN2CCN(C)CC2)c(O)c2ncccc12`, for which the RP-LC retention time turned out to be 592 s.

Take `CCCNC(=O)CC1=C2CCCCC2NC1=O` (stereo unspecified): the RP-LC retention time is 618 s. In turn, `CC[C@@H](C)[C@@H](O)[C@H](C)C(=O)[C@H](C)/C=C(\C)C[C@H](C)[C@@H]1OC(=O)[C@H]1CC` had an RP-LC retention time of 1250 s. Turning to `COc1ccc(NC(=O)[C@@H]2c3ccccc3C(=O)N3CCCC[C@@H]23)cc1OC`, the RP-LC retention time worked out at 727 s. The value for `CS(=O)(=O)N1CCC(CNC(=O)C(=O)Nc2ccon2)CC1` was 609 s; that for `CCn1nccc1C(=O)NCCn1c(=O)n(Cc2ccc(C)cc2)c2cccnc21` was 773 s; that for `O=C(CN1C(=O)C2CCCCN2c2ccc(C(=O)N3CCCC3)cc21)NCc1ccco1` (stereo unspecified) was 724 s.

For `O=C(Cn1c(=O)c(CCC(=O)NC2CC2)nc2ccccc21)NCc1ccccc1`, the RP-LC retention time was found to be 693 s. Turning to `CCOC(=O)N1CCN(c2ncc(C(=O)Nc3ccc(OC)cc3)c(N)n2)CC1`, the RP-LC retention time was 679 s. The value for `Cc1cnc(C(=O)N2CCC(F)(F)C(COCC3CC3)C2)cn1` (stereo unspecified) was 794 s.

For `CCn1cnc2ccc(-c3noc(Cc4ccccc4Cl)n3)cc21`, the RP-LC retention time was determined as 774 s.

With `CNC(=O)c1cc(N2CCN(C)CC2)nc2c(C)cccc12`, the RP-LC retention time was determined as 601 s. As for `CCOc1cc(=O)n2c(c1C(=O)Nc1ccc(Br)cc1F)CCCC2`, the RP-LC retention time is 790 s. In the case of `CCCN1C(=O)c2cc(C(=O)N3CCCCCC3)nn2CC1(C)C(=O)NC1CCCC1` (stereo unspecified), the RP-LC retention time turned out to be 803 s. The value for `CCOc1ccc(NC(=O)CN2C(=O)CCc3cc(Br)ccc32)cc1` was 926 s; that for `O=C(NCCC1=CCCCC1)C1CCN(Cc2cc3ccccc3n2Cc2ccc(Cl)cc2)CC1` was 917 s. With `O=C(CCCN1C(=O)c2cccnc2Oc2ccccc21)N1CCN(c2ccccn2)CC1`, the RP-LC retention time amounted to 605 s.

`CCc1nc(-c2csc(S(=O)(=O)N3CCC(C(=O)NC4CCCCCCC4)CC3)c2)no1` yielded an RP-LC retention time of 1070 s. The value for `CN(CC1(C)CCOCC1)C(=O)NCc1ccco1` was 649 s. In the case of `CCC(=O)NCc1ccc(-c2nc(C(C)C)cs2)cc1`, the RP-LC retention time was 873 s. `CC(C(=O)N1CCN(c2ccccn2)CC1)n1ccc2cc(S(=O)(=O)N3CCCCCC3)ccc21` (stereo unspecified): the RP-LC retention time turned out to be 738 s. For `CCNc1cc(N2CCC(CCC(=O)NCc3ccccc3)CC2)ncn1`, the RP-LC retention time was determined as 647 s. Turning to `O=C(Cn1c(=O)ccc2cc(S(=O)(=O)N3CCCC3)ccc21)N1CCN(c2ncccn2)CC1`, the RP-LC retention time was determined as 708 s. Take `CC(C)Oc1ccccc1CN1C[C@@H]2C(=O)N(C)C(=O)[C@@H]2C1`: the RP-LC retention time was found to be 616 s.

`CSCC(=O)N1CCC(C2CCN(C(C)=O)CC2)C1` (stereo unspecified) yielded an RP-LC retention time of 624 s. As for `Cc1ccc(-c2csc(-c3cccn3CC(=O)N3CCCC3)n2)cc1`, the RP-LC retention time is 1070 s. The molecule `CCOc1ccc(CC(=O)N2CCCC2c2cc(C)on2)cc1` (stereo unspecified) registered an RP-LC retention time of 822 s. The molecule `CCOC(=O)C1CCC(CNC(=O)Nc2cccn3cnnc23)CC1` (stereo unspecified) returned an RP-LC retention time of 654 s. The value for `COc1cc(OC)cc(-c2noc(Cn3nc(-c4ccc(C)cc4)ccc3=O)n2)c1` was 1090 s; that for `CCCOCCOC(=O)C1=C(C)NC2=C(C(=O)CC(C)(C)C2)C1c1cccc(OC)c1OC` (stereo unspecified) was 875 s; that for `O=C(Nc1cccc(-c2ccc(N3CCOCC3)nn2)c1)Nc1ccccc1C(F)(F)F` was 750 s. Molecule `COc1ccc(-c2noc(C3CCCN3C(=O)Nc3ccc(Cl)cc3)n2)cc1` (stereo unspecified) showed an RP-LC retention time of 920 s. For the molecule `COc1ccc(-n2ccn3cc(-c4ccc(Cl)cc4)nc3c2=O)cc1OC`, the RP-LC retention time came to 810 s. For `Cc1ccc2c(=O)c3c([nH]c2c1C)CCN(CC(=O)Nc1ccc(Cl)c(F)c1)C3`, the RP-LC retention time is 662 s. `O=C(NC1CCN(c2cc(-c3cccs3)[nH]n2)C1)c1ccc(F)c(Cl)c1` (stereo unspecified): the RP-LC retention time was found to be 797 s. The value for `O=C(c1ccc([N+](=O)[O-])o1)N1CCN(Cc2csc(-c3ccccc3)n2)CC1` was 601 s.

On to `CCOC(=O)C1CCN(C(=O)C2CCN(c3nnc(-c4ccc(OC)cc4)o3)CC2)CC1`, for which the RP-LC retention time stood at 792 s.

`CCOC(=O)C(CC)n1nc2nc(Nc3ccc(C)c(F)c3)cc(C)n2c1=O` (stereo unspecified): the RP-LC retention time is 1200 s. In turn, `Nc1ncnc2c1nc(Br)n2C1O[C@H]2COP(=O)(O)O[C@@H]2[C@@H]1O` (stereo partly specified) registered an RP-LC retention time of 549 s.

Consider `Cc1noc([C@@H]2CN(C(=O)CCc3nc4ccccc4s3)C[C@H]2C(N)=O)n1`, for which the RP-LC retention time was 650 s. On to `CCN(CC)C(=O)Cn1c(Cc2ccc(Cl)cc2)nc2ccccc21`, for which the RP-LC retention time turned out to be 693 s.

The molecule `CN(C)C(=O)c1ccc2c(c1)nc(CN1CCN(C(=O)c3ccc(C#N)cc3)CC1)n2C` came in with an RP-LC retention time of 597 s.

`CCc1ccccc1S(=O)(=O)N1CCc2nc[nH]c2C1` showed an RP-LC retention time of 612 s.

`Cc1ccc(-c2nc(C3CC(=O)N(c4ccc(Cl)cc4)C3)no2)cc1C` (stereo unspecified) came in with an RP-LC retention time of 1200 s. The molecule `CN1c2ccccc2C(=O)NC12CCN(C(=O)NCc1cccc(F)c1)CC2` registered an RP-LC retention time of 722 s.

As for `Cc1ccccc1C1CCCN1C(=O)c1ccnn1C` (stereo unspecified), the RP-LC retention time was 768 s.

With `CCN(CC)C(=O)Cn1nc2ncccn2c1=O`, the RP-LC retention time amounted to 532 s. Regarding `CCN1CCn2cc(S(=O)(=O)Nc3cccc(C#N)c3)cc2C1=O`, the RP-LC retention time was found to be 680 s. The value for `C[C@H]1C/C=C/[C@H]2[C@@H]3O[C@]3(C)[C@@H](C)[C@H]3[C@H](Cc4ccccc4)NC(=O)[C@]32OC(=O)O/C=C/[C@](C)(O)C1=O` was 870 s; that for `CCOC(=O)c1noc2ncnc(Nc3ccc(C)cc3C)c12` was 1030 s; that for `CN(C)C(=O)c1cc2c(s1)CCC(C(=O)NCCc1cccnc1)C2` (stereo unspecified) was 543 s. In turn, `COc1ccccc1N1CCN(c2ccc3cc(S(=O)(=O)N4CCCCC4)ccc3n2)CC1` returned an RP-LC retention time of 987 s. `Cc1ccc(-c2[nH]ncc2CN2CCC3(CC2)CC(C)(O)CCO3)cc1` (stereo unspecified) displayed an RP-LC retention time of 597 s.
